From patent US20180148446A1, “PYRROLO [2,3-c] PYRIDINE COMPOUND, PROCESS FOR PRODUCING THE SAME, AND USE” (Takeda Pharmaceutical Company Limited, priority 2004, published 2018)

target: T1, H^+/K^+-ATPase (Sus scrofa, UniProt P19156); test: Proton, potassium-adenosine triphosphatase (H+/K+-ATPase) inhibitory activity test; format: biochemical; settings: pig stomach mucous membrane microsome fraction; pH 6.5, 37° C.; malachite green colorimetry at 610 nm; read-out: IC50 (50% inhibitory concentration of proton and potassium-adenosine triphosphatase)
T1 construct: The obtained microsome fraction was used as the H^+/K^+-ATPase standard product; from tissue; host or cells: pig stomach (corpus ventriculi) mucous membrane microsome fraction
T1 sequence (P19156 2-1034 limits assumed): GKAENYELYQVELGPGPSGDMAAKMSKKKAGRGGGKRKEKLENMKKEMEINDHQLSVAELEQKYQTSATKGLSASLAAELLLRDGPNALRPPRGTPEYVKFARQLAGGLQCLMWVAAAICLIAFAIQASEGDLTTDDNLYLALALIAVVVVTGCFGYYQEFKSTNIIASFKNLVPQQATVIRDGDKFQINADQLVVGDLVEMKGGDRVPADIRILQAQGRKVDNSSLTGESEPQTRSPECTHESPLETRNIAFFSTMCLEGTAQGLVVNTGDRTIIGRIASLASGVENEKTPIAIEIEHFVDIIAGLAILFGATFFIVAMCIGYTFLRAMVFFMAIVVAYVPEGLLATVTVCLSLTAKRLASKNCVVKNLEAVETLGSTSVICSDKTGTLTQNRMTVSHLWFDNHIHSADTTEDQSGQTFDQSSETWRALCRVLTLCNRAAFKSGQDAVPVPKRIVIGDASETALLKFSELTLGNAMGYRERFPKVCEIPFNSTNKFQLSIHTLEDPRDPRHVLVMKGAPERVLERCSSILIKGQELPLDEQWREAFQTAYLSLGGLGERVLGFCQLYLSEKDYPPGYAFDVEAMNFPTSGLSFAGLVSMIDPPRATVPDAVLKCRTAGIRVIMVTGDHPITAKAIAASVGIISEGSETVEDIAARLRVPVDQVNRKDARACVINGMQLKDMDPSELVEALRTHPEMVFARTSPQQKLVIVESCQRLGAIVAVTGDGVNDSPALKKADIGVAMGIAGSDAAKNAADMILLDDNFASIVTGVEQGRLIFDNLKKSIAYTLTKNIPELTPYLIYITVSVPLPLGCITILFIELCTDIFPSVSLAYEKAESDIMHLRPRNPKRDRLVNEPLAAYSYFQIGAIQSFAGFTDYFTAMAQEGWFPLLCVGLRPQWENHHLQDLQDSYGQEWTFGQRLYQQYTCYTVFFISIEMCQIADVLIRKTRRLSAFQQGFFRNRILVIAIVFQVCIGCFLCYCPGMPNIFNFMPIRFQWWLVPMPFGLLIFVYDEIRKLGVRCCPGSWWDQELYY
T1 sequence (P18434 whole entry partner): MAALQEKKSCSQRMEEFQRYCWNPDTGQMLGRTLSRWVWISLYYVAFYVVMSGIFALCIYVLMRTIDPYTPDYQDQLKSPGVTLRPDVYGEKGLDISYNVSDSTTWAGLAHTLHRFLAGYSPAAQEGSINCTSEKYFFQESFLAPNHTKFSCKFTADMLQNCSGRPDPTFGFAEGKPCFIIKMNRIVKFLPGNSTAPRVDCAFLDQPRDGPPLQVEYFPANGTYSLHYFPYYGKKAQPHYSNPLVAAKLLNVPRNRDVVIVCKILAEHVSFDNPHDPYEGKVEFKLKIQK
Method: Proton, Potassium-Adenosine Triphosphatase (H^+/K^+-ATPase) Inhibitory Activity Test
According to the method of Wallmark et al. [Biochem. Biophys. Acta., 728, 31 (1983)], a stomach mucous membrane microsome fraction was prepared from the stomach of a pig. First, the corpus ventriculi was isolated, washed with tap water, immersed in 3M brine, and the surface of the mucous membrane was wiped with a paper towel. The stomach mucous membrane was separated, chopped, and homogenized using polytron (Kinematica) in 0.25 M saccharose solution (pH 6.8) containing 1 mM EDTA and 10 mM tris hydrochloric acid. The obtained homogenate was centrifuged at 20,000×g for 30 min, and the supernatant was centrifuged at 100,000×g for 90 min. After suspending the precipitated part in a 0.25 M saccharose solution, layered on a 0.25 M saccharose solution containing 7.5% Ficoll, and centrifuged at 100,000×g for 5 hr. The fraction of the interface between the both layers was collected and washed by centrifugation with a 0.25 M saccharose solution.
The obtained microsome fraction was used as the H^+/K^+-ATPase standard product.
A test compound (5 μL) dissolved in a 10% aqueous dimethyl sulfoxide solution was added to 40 μL of a 50 mM Hepes-tris buffer (5 mM magnesium chloride, 10 mM potassium chloride, 10 μM valinomycin, pH=6.5) containing 2.5 μg/mL (based on the protein concentration) of an enzyme standard product, and the mixture was incubated at 37° C. for 30 min. The enzyme reaction was started by the addition of 5 μL of a 2 mM adenosine triphosphate tris salt solution (50 mM Hepes-tris buffer (5 mM magnesium chloride, pH 6.5)). The enzyme reaction was carried out at 37° C. for 20 min, and quenched by adding 15 μL of malachite green solution (a mixture of 0.12% malachite green sulfuric acid (5N) solution, 7.5% ammonium molybdate and 11% Tween 20 at a ratio of 100:25:2). The mixture was stood at room temperature for 15 min, and the resulting reaction product of inorganic phosphorus and malachite green was colorimetrically determined at a wavelength of 610 nm. The amount of inorganic phosphoric acid in a reaction solution free of potassium chloride was measured in the same manner. The H^+/K^+-ATPase activity was measured by subtracting the obtained amount from the amount of inorganic phosphoric acid in the presence of potassium chloride. The inhibitory rate (%) was determined from the control activity value and the activity value at each concentration of the test compound, and 50% inhibitory concentration (IC50) of proton and potassium-adenosine triphosphatase was determined.

| Structure (SMILES) | IC50 [nM] |
| --- | --- |
| Cc1[nH]c2c(NC(=O)c3ccccc3)nccc2c1C [Example 74, N-[7-(2,3-dimethyl-1H-pyrrolo[2,3-c]pyridyl)]benzamide] | 1800 |
| CCCn1c(C)cc2ccnc(NCc3ccccc3)c21 [Example 2, N-benzyl-2-methyl-1-propyl-1H-pyrrolo[2,3-c]pyridine-7-amine] | 980 |
| Cc1cc(F)ccc1CNc1nccc2c(CO)c(C)n(CC(C)C)c12 [Example 65, {7-[(4-fluoro-2-methylbenzyl)amino]-1-isobutyl-2-methyl-1H-pyrrolo[2,3-c]pyridin-3-yl}methanol] | 3.2 |
| Cc1[nH]c2c(NCc3ccccc3)nccc2c1C [Example 12, N-benzyl-2,3-dimethyl-1H-pyrrolo[2,3-c]pyridine-7-amine] | 27 |
| Cc1[nH]c2c(NC3CCc4ccccc43)nccc2c1C (centres unmarked) [Example 16, N-(2,3-dihydro-1H-inden-1-yl)-2,3-dimethyl-1H-pyrrolo[2,3-c]pyridine-7-amine] | 9.8 |
| CCCn1c(C)c(C)c2ccnc(NCc3ccc(F)cc3C)c21 [Example 26, N-(4-fluoro-2-methylbenzyl)-2,3-dimethyl-1-propyl-1H-pyrrolo[2,3-c]pyridine-7-amine] | 24 |
| Cc1cc2ccnc(NCc3ccccc3)c2n1CC1CC1 [Example 5, N-benzyl-1-(cyclopropylmethyl)-2-methyl-1H-pyrrolo[2,3-c]pyridine-7-amine] | 1200 |
| Cc1cccc(C)c1CNc1nccc2c(C)c(C)[nH]c12 [Example 14, N-(2,6-dimethylbenzyl)-2,3-dimethyl-1H-pyrrolo[2,3-c]pyridine-7-amine] | 14 |
